# Test results as given in patent US11091429B2, “Organic compounds” (Givaudan SA, priority 2012, dated 2021).
# How the values were obtained:
# [1] = Tasting in chicken bouillon; settings: 0.7% salt, 0.5% fat
# Description: (§1) The following formulations were prepared and tasted by trained panelists.
# Standard Chicken bouillon base, 0.7% salt, 0.5% fat
# Samples were prepared and evaluated by expert tasters. Tasters were asked to describe the samples focusing on authentic taste, mouthfeel, fullness, salivation, salty-ness, umami, sweetness, juiciness, richness, long lastingness and fattiness.
# Test in Soups and Bouillons
# Standard Chicken Bouillon Base
# Test in orange beverage = settings: 1 ppm; water, 7% sugar (8% sucrose elsewhere in the source), 0.1% citric acid, orange flavour 0.06%
# Description: (§2) Samples were evaluated by expert tasters. Tasters were asked to describe the samples focusing on authentic taste, mouthfeel, fullness, salty-ness, salivation, umami, sweetness, juiciness, richness, long lastingness and fattiness.
# Base is water, 7% sugar, 0.1% citric acid, proprietary orange flavour @ 0.06%.
# (§3) Samples were evaluated by expert tasters. Tasters were asked to describe the samples focusing on authentic taste, mouthfeel, fullness, salty-ness, salivation, umami, sweetness, juiciness, richness, long lastingness and fattiness
# Base is water, 7% sugar, 0.1% citric acid, proprietary orange flavour @ 0.06%
# (§4) Samples were evaluated by expert tasters. Tasters were asked to describe the samples focusing on authentic taste, mouth feel, fullness, salivation, salty-ness, umami, sweetness, juiciness, richness, long lastingness and fattiness
# Samples were evaluated by expert tasters. Tasters were asked to describe the samples focusing on authentic taste, mouthfeel, fullness, salivation, sweetness, juiciness, richness, long lastingness and fattiness
# Comparison in an Orange Drink
# Base: water, 8% sucrose, 0.1% citric acid, proprietary orange flavour @ 0.06%.
# [2] = Tasting in Maggi beef bouillon; settings: Maggi beef bouillon 1 tablet in 500 ml of hot water
# Description: (§5) Samples were prepared and evaluated by expert tasters. Tasters were asked to describe the samples focusing on authentic taste, mouthfeel, fullness, salty-ness, salivation, umami, sweetness, juiciness, richness, long lastingness and fattiness.
# Comparison in Beef Bouillon
# Base is Maggi beef bouillon 1 tablet in 500 ml of hot water
# as §2
# (§6) Samples were evaluated by expert tasters. Tasters were asked to describe the samples focusing on authentic taste, mouthfeel, fullness, salivation, salty-ness, umami, sweetness, juiciness, richness, long lastingness and fattiness.
# as §3, §4
# [3] = Tasting in mango juice drink, 1% clear mango juice; settings: 8% sucrose, 0.1% citric acid, mango flavour 0.05%
# Description: Comparison in a Mango Juice Drink
# Base is 8% sucrose, 0.1% citric acid, 1% clear mango juice, and a proprietary mango flavour at 0.05%.
# as §2
# Base is water, 8% sucrose, 0.1% citric acid, 1% clear mango juice, proprietary mango flavour @ 0.05%
# as §6
# Base is water, 8% sucrose, 0.1% citric acid, 1% clear mango juice, proprietary mango flavour @0.05%
# as §3
# Base is 8% sucrose, 0.1% citric acid, 1% clear mango juice, proprietary mango flavour @ 0.05%
# as §4
# Base is water, 8% sucrose, 0.1% citric acid, 1% clear mango juice, proprietary mango flavour @ 0.05%.
# Test in a Mango Juice Drink
# [4] = Test in peach flavoured drink; settings: 1 ppm; water, 8% sugar, 0.1% citric acid, peach flavour 0.05%
# Description: as §5
# Test in Peach Flavoured Drink:
# Base is water, 8% sugar, 0.1% citric acid, and proprietary peach flavour at 0.05%
# as §2
# Comparison in a Peach Drink
# Base is water, 8% sugar, 0.1% citric acid, proprietary peach flavour at 0.05%
# as §6
# [5] = Tasting in vanilla milk 0.15% fat; settings: 4% sucrose, Vaniline 10 ppm + vanilla extract 0.03%
# Description: as §5
# Base: Milk 0.15% fat, sweetened with 4% sucrose by weight, flavoured with proprietary
# Vaniline flavour @ 10 ppm+Vanilla ext. @ 0.03%
# as §2
# Comparison in a Vanilla Milk Drink
# Vaniline @ 10 ppm+Vanilla extract @ 0.03%
# Base: Milk 0.15% fat, sweetened with 4% sucrose by weight, flavoured with proprietary Vaniline @ 10 ppm+Vanilla extract @ 0.03%
# [6] = Test in pear flavoured drink; settings: 1 ppm; water, 7% sugar (8% elsewhere in the source), 0.1% citric acid, pear flavour 0.025%
# Description: as §5
# Test in Pear Flavoured Drink:
# Base: water, 7% sugar, 0.1% citric acid, proprietary pear flavour at 0.025%
# as §2
# Comparison in a Pear Drink
# Base is water, 8% sugar, 0.1% citric acid, proprietary pear flavour at 0.025%
# [7] = Test in chocolate flavoured drink; settings: 2 ppm; water, 4% sucrose, chocolate flavour 0.03%
# Description: as §5
# Test in Chocolate Flavoured Drink:
# Base: Water, 4% sucrose, proprietary chocolate flavor at 0.03%
# as §2
# Test in Chocolate Flavoured Drink Flavoured
# Base: Water, 4% sucrose, proprietary chocolate flavour @ 0.03%
# [8] = Tasting in strawberry flavoured sugar sweetened yoghurt; settings: 2 ppm, 1.5% fat yoghurt, 8% sucrose, strawberry flavour 0.015%
# Description: Strawberry Flavoured Sugar Sweetened Yoghurt
# In a 1.5% fat yoghurt base, sweetened with 8% sucrose by weight, flavoured with a proprietary strawberry flavour @ 0.015% several different N-acyl aminoacids were added.
# as §5
# Test in a Strawberry Yoghurt
# Base: Yoghurt 1.5% fat yoghurt, 8% sucrose, proprietary strawberry flavour @ 0.015%
# as §6
# [9] = Tasting in strawberry drink; settings: 7% sucrose, 0.1% citric acid, strawberry flavour 0.015%
# Description: as §5
# Comparison in a Strawberry Drink
# Base is 7% sucrose, 0.1% citric acid, and a proprietary strawberry flavour @ 0.015%
# as §2
# Base is water, 7% sucrose, 0.1% citric acid, proprietary strawberry flavour @ 0.015%
# as §6
# Test in a Strawberry Drink
# Base is 7% sucrose, 0.1% citric acid, proprietary strawberry flavour @ 0.015%
# [10] = Tasting in beef bouillon base; settings: 0.5 PPM in beef bouillon base 1.0% salt, 0.5% fat
# Description: as §1
# Beef Bouillon base 1.0% salt, 0.5% fat
# [11] = 0.2 PPM in chicken bouillon base
smiles,measurement,setting,value
"CC(C)=CCC/C(C)=C/C(=O)NC1(C(=O)O)CC1 [Geranoyl ACCA, N-geranoyl 1-amino-cyclopropyl carboxylic acid]",tasting result,[1]; [11],Saltier Umami lingering Mouthfeel
"CCCCC/C=C\C/C=C\CCCCCCCC(=O)NC(CO)C(=O)O (centres unmarked) [C18:2-ser, N-linoleoyl-Ser]",tasting result,Test in orange beverage,"very fresh, authentic, slightly less sweet, more juicy"
same,tasting result,[2]; 1 ppm,"more umami, slightly more salty, sweet"
same,tasting result,[3]; 1 ppm,"apple note, less acidic, juicy"
"CCCCCCCC/C=C\CCCCCCCC(=O)N[C@H](C(=O)O)C(C)C [C18:1-val, N-oleoyl-L-valine]",tasting result,[4],"tropical, fatty, skin, juicy"
CCCCCCCCCCCCCCCC(=O)NCC(=O)O [C16:0-gly],tasting result,Test in orange beverage,sweet after taste juicy
"CCCCC/C=C\C/C=C\CCCCCCCC(=O)NC(CC(=O)O)C(=O)O (centres unmarked) [C18:2-asp, N-linoleoyl-Asp]",tasting result,[4],"fatty skin like, slight apple note"
same,tasting result,[5]; 2 ppm,sweet full very natural vanilla
same,tasting result,[6],"very juicy, authentic, texture like pear 3D"
same,tasting result,[3]; 1 ppm,"fatty, authentic fruit like, slight raspberry and pear note"
same,tasting result,[7],"cardboard, sweet diy"
CCCCC/C=C\C/C=C\CCCCCCCC(=O)NCCC(=O)O [C18:2-beta ala],tasting result,[2]; 2 ppm,"salty, savoury, full"
same,tasting result,[3]; 2 ppm,"full long lasting nice juicy, almost a bit salty"
CCCCCCCC/C=C\CCCCCCCC(=O)NC(CCC(N)=O)C(=O)O (centres unmarked) [C18:1-gln],tasting result,[8],"Juicy, nice, fatty aftertaste"
same,tasting result,[9]; 0.5 ppm,"more juicy, creamy, fruity long lasting"
"CCCCCCCCCCCCCCCCCC(=O)NC(CCC(=O)O)C(=O)O (centres unmarked) [C18:0-glu, N-stearoyl-Glu]",tasting result,[9]; 0.5 ppm,"fruity, juicy, long lasting"
same,tasting result,[5]; 1 ppm,"full, fatty, whipped cream like"
same,tasting result,[3]; 1 ppm,"fatty, full, sweet juicy"
CCCCCCCCCCCCCCCC(=O)NCCC(=O)O [C16:0-beta ala],tasting result,[2]; 2 ppm,more salty salivating umami
same,tasting result,[3]; 2 ppm,more juicy
"CCCCC/C=C\C/C=C\CCCCCCCC(=O)N[C@H](C(=O)O)C(C)C [C18:2-val, N-linoleoyl-L-valine]",tasting result,[10],"more body and mouthfeel, more umami"
same,tasting result,[2]; 1 ppm,"more umami, salivating, salty"
same,tasting result,[3]; 1 ppm,"ripe, very juicy nice, full body, long lasting"
"CCCCCCCCCC(=O)NC1(C(=O)O)CC1 [C10:0 ACCA, N-decanoyl 1-amino-cyclopropyl carboxylic acid]",tasting result,[1]; [11],More umami lingering body
same,tasting result,[1]; 0.5 PPM in chicken bouillon base,"Nice strong salty, Umami lingering body, better chicken profile"
"CCCCCCCCCCCCCCCC(=O)N1CCCC1C(=O)O (centres unmarked) [C16:0-pro, N-palmitoyl-Pro]",tasting result,[2]; 1 ppm,"more salty, full, darker, more meat-like"
same,tasting result,[3]; 1 ppm,"overripe, orange like, long lasting after taste"
"CCCCCCCCCCCCCCCCCC(=O)N[C@@H](CO)C(=O)O [C18:0-ser, N-stearoyl-Ser]",tasting result,[2]; 1 ppm,"more salty, richer, more umami"
same,tasting result,[3]; 1 ppm,"nice sweet, pineapple, long lasting"
"CCCCCCCCCCCCCCCC(=O)N[C@H](C(=O)O)C(C)C [C16:0-val, N-palmitoyl-L-valine]",tasting result,[4],very juicy
"CCCCC/C=C\C/C=C\CCCCCCCC(=O)NC1(C(=O)O)CC1 [C18:2 ACCA, N-linoleoyl 1-amino-cyclopropyl carboxylic acid]",tasting result,[1]; [11],"Creamy, full body, more fatty chicken"
"CCCCCCCCCCCCCCCC(=O)N[C@@H](CC(C)C)C(=O)O [C16:0-leu, N-palmitoyl-L-leucine]",tasting result,[3]; 2 ppm,"very fruity, ripe mango taste, strawberry note"
CCCCCC/C=C\CCCCCCCC(=O)NCCCC(=O)O [C16:1-gaba],tasting result,[9]; 2 ppm,"juicy, fruity, fatty, long lasting, good mouthfeel"
same,tasting result,[3]; 2 ppm,"juicy, rich, full authentic"
"CCCCCCCCCCCCCCCC(=O)NC(CCSC)C(=O)O (centres unmarked) [C16:0-met, N-palmitoyl-Met]",tasting result,Test in orange beverage,"slightly metallic, fresh"
same,tasting result,[2]; 1 ppm,"salty, full, nice salivating, lingering"
same,tasting result,[3]; 1 ppm,"fatty, full body, juicy, metallic"
"CCCCCCCC/C=C\CCCCCCCC(=O)N[C@@H](CC(C)C)C(=O)O [C18:1-leu, N-oleoyl-L-leucine]",tasting result,[3]; 2 ppm,"very long lasting, ripe, fruity, juicy"
CCCCCCCC/C=C\CCCCCCCC(=O)NCCC(=O)O [C18:1-beta ala],tasting result,[2]; 2 ppm,more salty salivating umami
same,tasting result,[3]; 2 ppm,"more juicy, longlasting"
"CCCCC/C=C\C/C=C\CCCCCCCC(=O)NCC(=O)O [C18:2-gly, N-linoleoyl-glycine]",tasting result,Test in orange beverage,"very juicy, salivating, authentic, long lasting and sweet aftertaste"
"CCCCCC/C=C\CCCCCCCC(=O)NC(CC(C)C)C(=O)O [C16:1 leu, N-palmitenoyl-L-leucine]",tasting result,[10],Strong salty and rich
CCCCCCCC(=O)NC(CCSC)C(=O)O (centres unmarked) [C8:0-met],tasting result,[2]; 1 ppm,"more salty, no additional fullness"
same,tasting result,[3]; 1 ppm,"green fresh, no additional body"
"CCCCCCCCCCCCCCCCCC(=O)NC(CC(=O)O)C(=O)O (centres unmarked) [C18:0-asp, N-stearoyl-Asp]",tasting result,[2]; 1 ppm,"lot off fullness and body, less salty"
same,tasting result,[3]; 1 ppm,"fatty, fruity, long lasting"
"CCCCCC/C=C\CCCCCCCC(=O)NC(CCC(=O)O)C(=O)O (centres unmarked) [C16:1-glu, N-palmitenoyl-Glu]",tasting result,[9]; 0.5 ppm,"full, fatty, creamy"
same,tasting result,[5]; 1 ppm,"full, fatty, creamy, sweet vanilla"
same,tasting result,[3]; 1 ppm,"full, heavy, jammy, long lasting"
"CCCCC/C=C\C/C=C\CCCCCCCC(=O)NC(CCSC)C(=O)O (centres unmarked) [C18:2-met, N-linoleoyl-Met]",tasting result,[2]; 1 ppm,"salivating salty, umami"
same,tasting result,[3]; 1 ppm,fresh nice juicy
"CCCCCCCCCCCCCCCCCC(=O)NC(CCC(N)=O)C(=O)O (centres unmarked) [C18:0-gln, N-stearoyl-Gln]",tasting result,[8],"Sweet full juicy, nice, slight enhanced sulphury"
CCCCCCCCCCCCCCCCCC(=O)NCCCC(=O)O [C18:0-gaba],tasting result,[8],"juicy full, jammy"
same,tasting result,[9]; 0.5 ppm,"mild creamy, fruity, juicy and long lasting"
"CCCCC/C=C\C/C=C\CCCCCCCC(=O)N[C@@H](C)C(=O)O [C18:2-ala, N-linoleoyl-L-alanine]",tasting result,[4],"enhanced sulfur note, powdery, soft peach skin like, authentic peach, slight raspberry note"
same,tasting result,[9]; 0.5 ppm,"creamy, fruity, juicy, green, long lasting, strawberry"
same,tasting result,[3]; 1 ppm,"fatty, juicy, apple skin taste"
CCCCCCCC/C=C\CCCCCCCC(=O)NC(CC(=O)O)C(=O)O (centres unmarked) [C18:1-asp],tasting result,[2]; 1 ppm,not special
same,tasting result,[3]; 1 ppm,juicy fruit like
